Laboratory results from ChEMBL document CHEMBL4312031, “Discovery of candesartan cilexetic as a novel neddylation inhibitor for suppressing tumor growth” (Eur J Med Chem, 2020).
Active and inactive are the calls of the source. The rule behind the calls is not given here.

Columns and labels:
[1] = biological target: T1, NEDD8/Cullin-1 (Homo sapiens) (UniProt Q13616+Q15843); experiment: Inhibition of Nedd8-cullin1 adduct formation in human A549 cells assessed as decrease in cullin1 neddylation at 100 uM incubated for 6 to 12 hrs by Western blot analysis; type: cell-based
[2] = biological target: T1, NEDD8/Cullin-1 (Homo sapiens); experiment: Inhibition of Nedd8-cullin1 (unknown origin) adduct formation assessed as decrease in cullin1 neddylation at 50 uM preincubated for 10 mins followed by ATP addition and measured after 30 mins by immunoblot analysis; type: protein assay
[3] = biological target: T1, NEDD8/Cullin-1 (Homo sapiens); experiment: Inhibition of Nedd8-cullin1 adduct formation in human A549 cells assessed as decrease in cullin1 neddylation at 60 to 80 uM measured after 6 hrs by Western blot analysis; type: cell-based
Target sequence in this assay (Q13616 whole entry, looked up): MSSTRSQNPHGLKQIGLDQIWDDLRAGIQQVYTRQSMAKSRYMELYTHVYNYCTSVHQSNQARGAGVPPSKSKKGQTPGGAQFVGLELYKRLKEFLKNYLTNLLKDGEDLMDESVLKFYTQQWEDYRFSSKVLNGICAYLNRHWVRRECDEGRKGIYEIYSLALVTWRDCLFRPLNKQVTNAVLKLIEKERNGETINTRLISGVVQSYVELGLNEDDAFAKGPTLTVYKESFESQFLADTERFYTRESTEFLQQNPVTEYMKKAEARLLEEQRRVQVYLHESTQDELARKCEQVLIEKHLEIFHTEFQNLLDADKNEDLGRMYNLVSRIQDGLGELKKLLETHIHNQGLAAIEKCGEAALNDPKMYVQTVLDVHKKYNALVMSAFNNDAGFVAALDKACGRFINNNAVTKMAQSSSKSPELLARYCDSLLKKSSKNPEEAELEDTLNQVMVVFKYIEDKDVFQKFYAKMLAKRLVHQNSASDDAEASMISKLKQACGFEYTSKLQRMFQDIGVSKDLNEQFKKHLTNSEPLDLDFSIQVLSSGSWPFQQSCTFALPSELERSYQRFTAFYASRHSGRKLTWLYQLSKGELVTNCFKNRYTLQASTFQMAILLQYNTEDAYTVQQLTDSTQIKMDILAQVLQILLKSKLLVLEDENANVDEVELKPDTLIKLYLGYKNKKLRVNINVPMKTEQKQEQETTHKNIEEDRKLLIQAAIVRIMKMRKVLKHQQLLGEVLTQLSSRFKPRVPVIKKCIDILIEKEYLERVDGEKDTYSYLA
Target sequence in this assay (Q15843 whole entry, looked up): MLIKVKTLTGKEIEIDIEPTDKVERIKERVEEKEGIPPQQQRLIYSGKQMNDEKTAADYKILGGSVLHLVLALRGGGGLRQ

[4] = biological target: T1, NEDD8/Cullin-1 (Homo sapiens); experiment: Inhibition of Nedd8-cullin1 adduct formation in human A549 cells assessed as decrease in cullin1 neddylation at 75 uM measured after 6 hrs by Western blot analysis; type: cell-based
Target sequence in this assay (Q13616 whole entry, looked up): as the sequence (Q13616 whole entry, looked up) above
Target sequence in this assay (Q15843 whole entry, looked up): as the sequence (Q15843 whole entry, looked up) above

[5] = biological target: T1, NEDD8/Cullin-1 (Homo sapiens); experiment: Inhibition of Nedd8-cullin1 adduct formation in human A549 cells assessed as decrease in cullin1 neddylation at 50 uM measured after 6 hrs by Western blot analysis; type: cell-based
Target sequence in this assay (Q13616 whole entry, looked up): as the sequence (Q13616 whole entry, looked up) above
Target sequence in this assay (Q15843 whole entry, looked up): as the sequence (Q15843 whole entry, looked up) above

NEDD8 activating enzyme = biological target: T2, NEDD8 activating enzyme (Homo sapiens, UniProt Q8TBC4); experiment: Binding affinity to biotin-labeled GST-tagged NAE (unknown origin) incubated for 1 hr by SPR assay; type: protein-complex assay
T2 sequence (Q8TBC4 whole entry): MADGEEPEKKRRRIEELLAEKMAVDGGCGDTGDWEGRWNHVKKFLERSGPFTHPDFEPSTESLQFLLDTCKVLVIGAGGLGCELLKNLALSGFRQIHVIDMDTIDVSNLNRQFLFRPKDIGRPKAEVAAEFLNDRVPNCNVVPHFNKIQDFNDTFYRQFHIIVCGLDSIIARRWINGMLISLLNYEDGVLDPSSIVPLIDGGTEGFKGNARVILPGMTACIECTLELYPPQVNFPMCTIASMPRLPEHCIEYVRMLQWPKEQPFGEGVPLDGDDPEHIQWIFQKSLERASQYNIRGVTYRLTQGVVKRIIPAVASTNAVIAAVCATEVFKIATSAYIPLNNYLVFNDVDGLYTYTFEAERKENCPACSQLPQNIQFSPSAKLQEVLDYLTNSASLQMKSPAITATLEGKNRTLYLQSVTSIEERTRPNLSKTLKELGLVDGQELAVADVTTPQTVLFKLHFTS
T2 sequence (Q13564 whole entry): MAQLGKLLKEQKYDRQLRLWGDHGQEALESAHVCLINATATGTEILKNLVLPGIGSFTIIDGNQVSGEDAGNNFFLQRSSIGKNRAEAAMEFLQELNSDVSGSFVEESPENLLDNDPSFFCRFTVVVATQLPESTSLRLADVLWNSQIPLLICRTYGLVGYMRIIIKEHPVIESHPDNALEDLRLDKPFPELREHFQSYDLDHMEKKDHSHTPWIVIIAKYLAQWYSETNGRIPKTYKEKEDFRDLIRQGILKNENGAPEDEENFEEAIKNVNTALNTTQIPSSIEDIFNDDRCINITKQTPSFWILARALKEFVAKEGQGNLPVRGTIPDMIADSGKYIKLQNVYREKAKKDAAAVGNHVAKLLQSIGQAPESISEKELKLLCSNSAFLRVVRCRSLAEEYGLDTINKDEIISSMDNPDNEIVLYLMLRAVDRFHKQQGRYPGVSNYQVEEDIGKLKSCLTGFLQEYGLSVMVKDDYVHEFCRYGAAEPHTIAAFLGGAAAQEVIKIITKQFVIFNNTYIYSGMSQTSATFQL

[6] = Toxicity in nude mouse xenografted with human A549 cells assessed as effect on body weight at 30 to 60 mg/kg, ip qd measured every 2 days; type: organism-based; settings: in vivo, 48 h
EKVX [7] = experiment: Antiproliferative activity against human EKVX cells measured after 48 hrs by CCK8 assay; type: functional, cell-based
T47D [8] = experiment: Antiproliferative activity against human T47D cells measured after 72 to 96 hrs by CCK8 assay; type: functional, cell-based
MGC-803 [9] = experiment: Antiproliferative activity against human MGC803 cells measured after 48 hrs by CCK8 assay; type: functional, cell-based; settings: MGC-803, 48 h
MKN-45 [10] = experiment: Antiproliferative activity against human MKN45 cells measured after 72 to 96 hrs by CCK8 assay; type: functional, cell-based
PLC [11] = experiment: Antiproliferative activity against human PLC cells measured after 72 to 96 hrs by CCK8 assay; type: functional, cell-based
T47D [12] = experiment: Antiproliferative activity against human T47D cells measured after 48 hrs by CCK8 assay; type: functional, cell-based
NCI-H1299 [13] = experiment: Antiproliferative activity against human H1299 cells measured after 48 hrs by CCK8 assay; type: functional, cell-based; settings: NCI-H1299, 48 h
A549 [14] = experiment: Antitumor activity against human A549 cells xenografted in nude mouse assessed as decrease in tumor weight at 60 mg/kg, ip qd measured after 22 days; type: functional, organism-based
MCF7 [15] = experiment: Antiproliferative activity against human MCF7 cells measured after 72 to 96 hrs by CCK8 assay; type: functional, cell-based
PLC [16] = experiment: Antiproliferative activity against human PLC cells measured after 48 hrs by CCK8 assay; type: functional, cell-based
NCI-H1299 [17] = experiment: Antiproliferative activity against human H1299 cells measured after 72 to 96 hrs by CCK8 assay; type: functional, cell-based
MGC-803 [18] = experiment: Antiproliferative activity against human MGC803 cells measured after 72 to 96 hrs by CCK8 assay; type: functional, cell-based
HepG2 [19] = experiment: Antiproliferative activity against human HepG2 cells measured after 72 to 96 hrs by CCK8 assay; type: functional, cell-based
A549 [20] = experiment: Antitumor activity against human A549 cells xenografted in nude mouse assessed as decrease in tumor size at 60 mg/kg, ip qd measured after 22 days; type: functional, organism-based
Huh-7 [21] = experiment: Antiproliferative activity against human HuH7 cells measured after 72 to 96 hrs by CCK8 assay; type: functional, cell-based
Huh-7 [22] = experiment: Antiproliferative activity against human HuH7 cells measured after 48 hrs by CCK8 assay; type: functional, cell-based; settings: Huh-7, 48 h
MCF7 [23] = experiment: Antiproliferative activity against human MCF7 cells measured after 48 hrs by CCK8 assay; type: functional, cell-based; settings: MCF7, 48 h
MKN-45 [24] = experiment: Antiproliferative activity against human MKN45 cells measured after 48 hrs by CCK8 assay; type: functional, cell-based; settings: MKN-45, 48 h
HepG2 [25] = experiment: Antiproliferative activity against human HepG2 cells measured after 48 hrs by CCK8 assay; type: functional, cell-based; settings: HepG2, 48 h
[26] = biological target: T1, NEDD8/Cullin-1 (Homo sapiens); experiment: Inhibition of Nedd8-cullin1 (unknown origin) adduct formation assessed as decrease in cullin1 neddylation at 10 uM preincubated for 10 mins followed by ATP addition and measured after 30 mins by immunoblot analysis; type: protein assay
Target sequence in this assay (Q13616 whole entry, looked up): as the sequence (Q13616 whole entry, looked up) above
Target sequence in this assay (Q15843 whole entry, looked up): as the sequence (Q15843 whole entry, looked up) above

[27] = Toxicity in nude mouse xenografted with human A549 cells assessed as effect on body weight at 60 mg/kg, ip qd measured every 2 days; type: organism-based; settings: in vivo, 48 h
EKVX [28] = experiment: Antiproliferative activity against human EKVX cells measured after 72 to 96 hrs by CCK8 assay; type: functional, cell-based

## CCCCCCCCCCCCCCCC[n+]1ccccc1
[1]
  inhibition: inactive
[2]
  inhibition: Active

## CN1CCN(CCCN2c3ccccc3Sc3ccc(C(F)(F)F)cc32)CC1
[1]
  inhibition: inactive
[2]
  inhibition: Active

## Clc1ccc(CCNC2CCN(Cc3ccccc3)CC2)c(Cl)c1
[3]
  inhibition: Active

## O=C1c2c(O)ccc(O)c2C(=O)c2c(NCCNCCO)ccc(NCCNCCO)c21
[4]
  inhibition: Active
[5]
  inhibition: inactive

## CCOc1nc2cccc(C(=O)OC(C)OC(=O)OC3CCCCC3)c2n1Cc1ccc(-c2ccccc2-c2nnn[nH]2)cc1 (stereo not drawn) [CANDESARTAN CILEXETIL]
NEDD8 activating enzyme
  Kd: 195000 nM
[6]
  Activity: Non-Toxic

## NS(=O)(=O)OC[C@@H]1C[C@@H](n2ccc3c(N[C@H]4CCc5ccccc54)ncnc32)C[C@@H]1O [PEVONEDISTAT]
EKVX [7]
  IC50: > 10000 nM
T47D [8]
  IC50: 300 to 1200 nM
MGC-803 [9]
  IC50: > 10000 nM
MKN-45 [10]
  IC50: 300 to 1200 nM
PLC [11]
  IC50: 300 to 1200 nM
T47D [12]
  IC50: > 10000 nM
NCI-H1299 [13]
  IC50: > 10000 nM
A549 [14]
  Activity: Active
MCF7 [15]
  IC50: 300 to 1200 nM
PLC [16]
  IC50: > 10000 nM
NCI-H1299 [17]
  IC50: 300 to 1200 nM
MGC-803 [18]
  IC50: 300 to 1200 nM
HepG2 [19]
  IC50: 300 to 1200 nM
A549 [20]
  Activity: Active
Huh-7 [21]
  IC50: 300 to 1200 nM
Huh-7 [22]
  IC50: > 10000 nM
MCF7 [23]
  IC50: > 10000 nM
MKN-45 [24]
  IC50: > 10000 nM
HepG2 [25]
  IC50: > 10000 nM
[26]
  inhibition: Active
[27]
  Activity: Non-Toxic
EKVX [28]
  IC50: 300 to 1200 nM

## BISMUTH SUBCITRATE POTASSIUM
[1]
  inhibition: inactive
[2]
  inhibition: Active
